Assays:
Assay in all cases: relative viability (nuclei count vs DMSO), 5 days (fraction); higher = more cells survive
NCI-H358 = test system: NCI-H358
Procedure, shortened: (§1)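 The day after seeding in 1536-well plates, lung cancer cell lines were treated by pin tool with a single drug, or with a fixed anchor-drug dose together with five library-drug doses (not always all listed) in √10 steps. After 5 days, a combined fix-and-stain solution (final 0.05% Triton X-100, 1% formaldehyde, 1 ug/ml Hoechst) was added. Nuclei counted on 4× images gave relative viability as treated counts over vehicle counts, reported as the median of duplicate plates.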

NCI-H650 = test system: NCI-H650
Procedure, shortened: as §1

NCI-H2342 = test system: NCI-H2342
Procedure, shortened: as §1

PC-3 [JPC-3] = test system: PC-3 [JPC-3]
Procedure, shortened: as §1

SK-MES-1 = test system: SK-MES-1
Procedure, shortened: as §1

UMC-11 = test system: UMC-11
Procedure, shortened: as §1

NCI-H1944 = test system: NCI-H1944
Procedure, shortened: as §1

LU99A = test system: LU99A
Procedure, shortened: as §1

H3255 = test system: H3255
Procedure, shortened: as §1

LK-2 = test system: LK-2
Procedure, shortened: as §1

LC-2-ad = test system: LC-2-ad
Procedure, shortened: as §1

ChaGo-K-1 = test system: ChaGo-K-1
Procedure, shortened: as §1

LCLC-97TM1 = test system: LCLC-97TM1
Procedure, shortened: as §1

LXF-289 = test system: LXF-289
Procedure, shortened: as §1

NCI-H596 = test system: NCI-H596
Procedure, shortened: as §1

BEN = test system: BEN
Procedure, shortened: as §1

NCI-H1666 = test system: NCI-H1666
Procedure, shortened: as §1

HCC-78 = test system: HCC-78
Procedure, shortened: as §1

HCC-15 = test system: HCC-15
Procedure, shortened: as §1

NCI-H322M = test system: NCI-H322M
Procedure, shortened: as §1

NCI-H838 = test system: NCI-H838
Procedure, shortened: as §1

NCI-H2087 = test system: NCI-H2087
Procedure, shortened: as §1

NCI-H1651 = test system: NCI-H1651
Procedure, shortened: as §1

NCI-H661 = test system: NCI-H661
Procedure, shortened: as §1

COc1cc(N2CCC(C(N)=O)CC2)ccc1Nc1nc(N)c(Cl)c(Nc2ccccc2S(=O)(=O)C(C)C)n1 [HG-5-88-01] + O=C(c1cc(Cc2n[nH]c(=O)c3ccccc23)ccc1F)N1CCN(C(=O)C2CC2)CC1 [Olaparib] (partner 8 µM)
relative viability (NCI-H358; first compound 0.04 µM): 0.569
relative viability (NCI-H358; first compound 0.1265 µM): 0.568
relative viability (NCI-H358; first compound 0.4 µM): 0.545
relative viability (NCI-H358; first compound 1.265 µM): 0.242
relative viability (NCI-H358; first compound 4 µM): 0.466
relative viability (NCI-H650; first compound 0.04 µM): 0.423
relative viability (NCI-H650; first compound 0.1265 µM): 0.366
relative viability (NCI-H650; first compound 0.4 µM): 0.408
relative viability (NCI-H650; first compound 1.265 µM): 0.321
relative viability (NCI-H650; first compound 4 µM): 0.239
relative viability (NCI-H2342; first compound 0.04 µM): 0.449
relative viability (NCI-H2342; first compound 0.1265 µM): 0.538
relative viability (NCI-H2342; first compound 0.4 µM): 0.473
relative viability (NCI-H2342; first compound 4 µM): 0.474
relative viability (PC-3 [JPC-3]; first compound 0.04 µM): 1.15
relative viability (PC-3 [JPC-3]; first compound 0.1265 µM): 1.14
relative viability (PC-3 [JPC-3]; first compound 0.4 µM): 1.04
relative viability (PC-3 [JPC-3]; first compound 1.265 µM): 0.379
relative viability (PC-3 [JPC-3]; first compound 4 µM): 0.506
relative viability (SK-MES-1; first compound 0.04 µM): 0.657
relative viability (SK-MES-1; first compound 0.1265 µM): 0.658
relative viability (SK-MES-1; first compound 0.4 µM): 0.689
relative viability (SK-MES-1; first compound 1.265 µM): 0.508
relative viability (SK-MES-1; first compound 4 µM): 0.564
relative viability (UMC-11; first compound 0.04 µM): 0.35
relative viability (UMC-11; first compound 0.1265 µM): 0.399
relative viability (UMC-11; first compound 0.4 µM): 0.45
relative viability (UMC-11; first compound 1.265 µM): 0.428
relative viability (UMC-11; first compound 4 µM): 0.274
relative viability (NCI-H1944; first compound 0.04 µM): 0.414
relative viability (NCI-H1944; first compound 0.1265 µM): 0.374
relative viability (NCI-H1944; first compound 0.4 µM): 0.479
relative viability (NCI-H1944; first compound 1.265 µM): 0.466
relative viability (NCI-H1944; first compound 4 µM): 0.466
relative viability (LU99A; first compound 0.04 µM): 0.266
relative viability (LU99A; first compound 0.1265 µM): 0.257
relative viability (LU99A; first compound 0.4 µM): 0.208
relative viability (LU99A; first compound 1.265 µM): 0.269
relative viability (LU99A; first compound 4 µM): 0.315
relative viability (H3255; first compound 0.04 µM): 0.556
relative viability (H3255; first compound 0.1265 µM): 0.593
relative viability (H3255; first compound 0.4 µM): 0.555
relative viability (H3255; first compound 4 µM): 0.531
relative viability (LK-2; first compound 0.04 µM): 0.941
relative viability (LK-2; first compound 0.1265 µM): 0.645
relative viability (LK-2; first compound 0.4 µM): 0.718
relative viability (LK-2; first compound 4 µM): 0.501
relative viability (LC-2-ad; first compound 0.04 µM): 0.691
relative viability (LC-2-ad; first compound 0.1265 µM): 0.692
relative viability (LC-2-ad; first compound 0.4 µM): 0.725
relative viability (LC-2-ad; first compound 1.265 µM): 0.692
relative viability (LC-2-ad; first compound 4 µM): 0.721
relative viability (ChaGo-K-1; first compound 0.04 µM): 0.421
relative viability (ChaGo-K-1; first compound 0.1265 µM): 0.418
relative viability (ChaGo-K-1; first compound 0.4 µM): 0.455
relative viability (ChaGo-K-1; first compound 1.265 µM): 0.421
relative viability (ChaGo-K-1; first compound 4 µM): 0.393
relative viability (LCLC-97TM1; first compound 0.04 µM): 0.434
relative viability (LCLC-97TM1; first compound 0.1265 µM): 0.396
relative viability (LCLC-97TM1; first compound 0.4 µM): 0.398
relative viability (LCLC-97TM1; first compound 1.265 µM): 0.26
relative viability (LCLC-97TM1; first compound 4 µM): 0.193
relative viability (LXF-289; first compound 0.04 µM): 0.988
relative viability (LXF-289; first compound 0.1265 µM): 1.13
relative viability (LXF-289; first compound 0.4 µM): 1.02
relative viability (LXF-289; first compound 1.265 µM): 1.07
relative viability (LXF-289; first compound 4 µM): 1.08
relative viability (NCI-H596; first compound 0.04 µM): 0.729
relative viability (NCI-H596; first compound 0.1265 µM): 0.734
relative viability (NCI-H596; first compound 0.4 µM): 0.682
relative viability (NCI-H596; first compound 1.265 µM): 0.777
relative viability (NCI-H596; first compound 4 µM): 0.694
relative viability (BEN; first compound 0.04 µM): 1.2
relative viability (BEN; first compound 0.1265 µM): 1.16
relative viability (BEN; first compound 0.4 µM): 1.13
relative viability (BEN; first compound 1.265 µM): 0.683
relative viability (BEN; first compound 4 µM): 0.993
relative viability (NCI-H1666; first compound 0.04 µM): 0.759
relative viability (NCI-H1666; first compound 0.1265 µM): 0.737
relative viability (NCI-H1666; first compound 0.4 µM): 0.816
relative viability (NCI-H1666; first compound 1.265 µM): 0.771
relative viability (NCI-H1666; first compound 4 µM): 0.684
relative viability (HCC-78; first compound 0.04 µM): 0.868
relative viability (HCC-78; first compound 0.1265 µM): 0.664
relative viability (HCC-78; first compound 0.4 µM): 0.511
relative viability (HCC-78; first compound 1.265 µM): 0.302
relative viability (HCC-78; first compound 4 µM): 0.422
relative viability (HCC-15; first compound 0.04 µM): 0.738
relative viability (HCC-15; first compound 0.1265 µM): 0.616
relative viability (HCC-15; first compound 0.4 µM): 0.883
relative viability (HCC-15; first compound 1.265 µM): 0.707
relative viability (HCC-15; first compound 4 µM): 0.7
relative viability (NCI-H322M; first compound 0.04 µM): 0.809
relative viability (NCI-H322M; first compound 0.1265 µM): 0.699
relative viability (NCI-H322M; first compound 0.4 µM): 0.913
relative viability (NCI-H322M; first compound 1.265 µM): 0.485
relative viability (NCI-H322M; first compound 4 µM): 0.686
relative viability (NCI-H838; first compound 0.04 µM): 0.793
relative viability (NCI-H838; first compound 0.1265 µM): 0.766
relative viability (NCI-H838; first compound 0.4 µM): 0.67
relative viability (NCI-H838; first compound 1.265 µM): 0.557
relative viability (NCI-H838; first compound 4 µM): 0.452
relative viability (NCI-H2087; first compound 0.04 µM): 0.557
relative viability (NCI-H2087; first compound 0.1265 µM): 0.645
relative viability (NCI-H2087; first compound 0.4 µM): 0.585
relative viability (NCI-H2087; first compound 1.265 µM): 0.536
relative viability (NCI-H2087; first compound 4 µM): 0.502
relative viability (NCI-H1651; first compound 0.04 µM): 0.189
relative viability (NCI-H1651; first compound 0.1265 µM): 0.199
relative viability (NCI-H1651; first compound 0.4 µM): 0.176
relative viability (NCI-H1651; first compound 1.265 µM): 0.234
relative viability (NCI-H1651; first compound 4 µM): 0.164
relative viability (NCI-H661; first compound 0.04 µM): 0.707
relative viability (NCI-H661; first compound 0.1265 µM): 0.779
relative viability (NCI-H661; first compound 0.4 µM): 0.8
relative viability (NCI-H661; first compound 1.265 µM): 0.716
relative viability (NCI-H661; first compound 4 µM): 0.845
